Experimental data: patent US10246456B2, “IRAK4 inhibiting agents” (BIOGEN MA INC., priority 2014, dated 2019)

These compounds were tested against IRAK4 (Homo sapiens (Human), UniProt Q9NWZ3) (assay: IRAK-4 AlphaScreen biochemical kinase assay). Conditions: 1 nM IRAK4, 1 mM ATP, 3.5 h at RT.
IRAK4, sequence (Q9NWZ3 whole entry, species assumed): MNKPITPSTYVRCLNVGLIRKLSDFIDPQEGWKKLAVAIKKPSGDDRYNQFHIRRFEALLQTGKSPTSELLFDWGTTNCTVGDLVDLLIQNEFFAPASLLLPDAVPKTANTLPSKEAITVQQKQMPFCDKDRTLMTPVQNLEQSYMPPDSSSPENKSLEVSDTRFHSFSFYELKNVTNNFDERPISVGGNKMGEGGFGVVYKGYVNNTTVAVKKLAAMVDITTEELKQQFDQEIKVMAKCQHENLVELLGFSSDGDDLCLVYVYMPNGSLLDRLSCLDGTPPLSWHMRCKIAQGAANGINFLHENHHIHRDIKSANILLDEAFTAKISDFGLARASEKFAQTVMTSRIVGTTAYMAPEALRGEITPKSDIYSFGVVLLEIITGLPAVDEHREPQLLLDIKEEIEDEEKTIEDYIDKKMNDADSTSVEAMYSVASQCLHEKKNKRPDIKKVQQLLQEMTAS
Method in brief: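 AlphaScreen read-out: streptavidin beads bind the biotinylated peptide and protein A beads bind the anti-phosphothreonine antibody, so energy transfer reports phosphorylation of the peptide. The kinase is human IRAK-4.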
In the case of `CCC[C@H](N)c1cccc(-c2cc(OCCCO)c3cnn(-c4cccc(CO)n4)c3c2)n1` [Example 460, (S)-3-((6-(6-(1-aminobutyl)pyridin-2-yl)-1-(6-(hydroxymethyl)pyridin-2-yl)-1H-indazol-4-yl)oxy)propan-1-ol], the IC50 is reported as under 0.1 µM.
Work on `CNC(=O)C(N)c1cccc(-c2ccc3cnn(-c4cccc(CO)n4)c3c2)n1` (centres unmarked) [Example 567, 2-amino-2-(6-(1-(6-(hydroxymethyl)pyridin-2-yl)-1H-indazol-6-yl)pyridin-2-yl)-N-methylacetamide] yielded an IC50 of 0.1 to 1 µM.
`COC(=O)C(N)c1cccc(-c2ccc3cnn(-c4cccc(C)n4)c3c2)n1` (centres unmarked) [Example 272, methyl 2-amino-2-(6-(1-(6-methylpyridin-2-yl)-1H-indazol-6-yl)pyridin-2-yl)acetate] was tested, and the IC50 was 0.1 to 1 µM.
Work on `CC(N)c1cccc(-c2cc(C(=O)N(C)C)c3cnn(-c4cccc(C(F)(F)F)n4)c3c2)n1` (centres unmarked) [Example 58, 6-(6-(1-aminoethyl)pyridin-2-yl)-N,N-dimethyl-1-(6-(trifluoromethyl)pyridin-2-yl)-1H-indazole-4-carboxamide] yielded an IC50 of 0.1 to 1 µM.
In the case of `N#CCNC(=O)c1cc(-c2ccc3cnn(-c4cccc(C(F)(F)F)n4)c3c2)cc(N)n1` [Example 87, 6-amino-N-(cyanomethyl)-4-(1-(6-(trifluoromethyl)pyridin-2-yl)-1H-indazol-6-yl)picolinamide], the IC50 is reported as 0.1 to 1 µM.
`CC(N)c1cccc(-c2ccc3cnn(-c4cccc(C(C)(C)C)n4)c3c2)n1` (centres unmarked) [Example 286, 1-(6-(1-(6-(tert-butyl)pyridin-2-yl)-1H-indazol-6-yl)pyridin-2-yl)ethanamine] was tested, and the IC50 was under 0.1 µM.
For `COC(=O)c1cc(-c2cccc(C(C)N)n2)cc2c1cnn2-c1cccc(C(F)(F)F)n1` (centres unmarked) [Example 56, methyl 6-(6-(1-aminoethyl)pyridin-2-yl)-1-(6-(trifluoromethyl)pyridin-2-yl)-1H-indazole-4-carboxylate], the IC50 was under 0.1 µM.
Compound `Cc1cccc(-n2ncc3ccc(-c4cn(C)cn4)cc32)n1` [Example 323, 6-(1-methyl-1H-imidazol-4-yl)-1-(6-methylpyridin-2-yl)-1H-indazole] has an IC50 of 0.1 to 1 µM.
In the case of `Cc1cccc(-n2ncc3ccc(-c4cccc(C(N)=O)n4)cc32)n1` [Example 248, 6-(1-(6-methylpyridin-2-yl)-1H-indazol-6-yl)picolinamide], the IC50 is reported as 0.1 to 1 µM.
`CNC(=O)c1cc(-c2cccc(C(C)N)n2)cc2c1cnn2-c1cccc(C(F)(F)F)n1` (centres unmarked) [Example 59, 6-(6-(1-aminoethyl)pyridin-2-yl)-N-methyl-1-(6-(trifluoromethyl)pyridin-2-yl)-1H-indazole-4-carboxamide] was tested, and the IC50 was under 0.1 µM.
Work on `Nc1cncc(-c2ccc3cnn(-c4cccc(C(F)(F)F)n4)c3c2)c1` [Example 40, 5-(1-(6-(trifluoromethyl)pyridin-2-yl)-1H-indazol-6-yl)pyridin-3-amine] yielded an IC50 of under 0.1 µM.
Compound `Nc1cncc(-c2ccc3cnn(-c4cccc(C(=O)NCCCO)n4)c3c2)c1` [Example 66, 6-(6-(5-aminopyridin-3-yl)-1H-indazol-1-yl)-N-(3-hydroxypropyl)picolinamide] has an IC50 of 0.1 to 1 µM.
`Cc1cccc(-n2ncc3ccc(-c4cccc(C(N)C5CC5)n4)cc32)n1` (centres unmarked) [Example 131, cyclopropyl(6-(1-(6-methylpyridin-2-yl)-1H-indazol-6-yl)pyridin-2-yl)methanamine] showed an IC50 of under 0.1 µM.
`Nc1cncc(-c2ccc3cnn(-c4cccc(C5CCC5)n4)c3c2)c1` [Example 28, 5-(1-(6-cyclobutylpyridin-2-yl)-1H-indazol-6-yl)pyridin-3-amine] showed an IC50 of 1 to 10 µM.
With `C[C@@H](N)c1cccc(-c2ccc3cnn(-c4cccc(CO)n4)c3c2)n1` [Example 144, (R)-(6-(6-(6-(1-aminoethyl)pyridin-2-yl)-1H-indazol-1-yl)pyridin-2-yl)methanol] the IC50 was under 0.1 µM.
In the case of `C[C@H](N)c1cccc(-c2ccc3cnn(-c4cccc(CO)n4)c3c2)n1` [Example 143, (S)-(6-(6-(6-(1-aminoethyl)pyridin-2-yl)-1H-indazol-1-yl)pyridin-2-yl)methanol], the IC50 is reported as under 0.1 µM.
With `COCCOc1cc(-c2cccc([C@@H](N)CF)n2)cc2c1cnn2-c1cccc(CO)n1` [Example 594, (R)-(6-(6-(6-(1-amino-2-fluoroethyl)pyridin-2-yl)-4-(2-methoxyethoxy)-1H-indazol-1-yl)pyridin-2-yl)methanol] the IC50 was under 0.1 µM.
In the case of `Cc1cccc(-n2ncc3ccc(-c4cccc(C(O)C(F)(F)F)n4)cc32)n1` (centres unmarked) [Example 244, 2,2,2-trifluoro-1-(6-(1-(6-methylpyridin-2-yl)-1H-indazol-6-yl)pyridin-2-yl)ethanol], the IC50 is reported as 0.1 to 1 µM.
`CCC[C@H](N)c1ccnc(-c2cc(OCC)c3cnn(-c4cccc(CO)n4)c3c2)n1` [Example 583, (S)-(6-(6-(4-(1-aminobutyl)pyrimidin-2-yl)-4-ethoxy-1H-indazol-1-yl)pyridin-2-yl)methanol] showed an IC50 of under 0.1 µM.
For `CC(N)c1cccc(-c2ccc3cnn(-c4ccccn4)c3c2)n1` (centres unmarked) [Example 122, 1-(6-(1-(pyridin-2-yl)-1H-indazol-6-yl)pyridin-2-yl)ethanamine], the IC50 was 0.1 to 1 µM.
With `Cc1cccc(-n2ncc3ccc(-c4nccc(CN)n4)cc32)n1` [Example 9, (2-(1-(6-methylpyridin-2-yl)-1H-indazol-6-yl)pyrimidin-4-yl)methanamine] the IC50 was 0.1 to 1 µM.
With `Cc1cccc(-n2ncc3ccc(-c4ccnc(N)c4)cc32)n1` [Example 6, 4-(1-(6-methylpyridin-2-yl)-1H-indazol-6-yl)pyridin-2-amine] the IC50 was 0.1 to 1 µM.
Work on `Nc1cncc(-c2cc(CO)c3cnn(-c4cccc(C(F)(F)F)n4)c3c2)c1` [Example 54, (6-(5-aminopyridin-3-yl)-1-(6-(trifluoromethyl)pyridin-2-yl)-1H-indazol-4-yl)methanol] yielded an IC50 of under 0.1 µM.
For `CCC[C@H](N)c1cccc(-c2ccc3cnn(-c4ccnc(CO)n4)c3c2)n1` [Example 401, (S)-(4-(6-(6-(1-aminobutyl)pyridin-2-yl)-1H-indazol-1-yl)pyrimidin-2-yl)methanol], the IC50 was under 0.1 µM.
`CC(N)c1cccc(-c2ccc3cnn(-c4cccc(C5(C#N)CC5)n4)c3c2)n1` (centres unmarked) [Example 290, 1-(6-(6-(6-(1-aminoethyl)pyridin-2-yl)-1H-indazole-1-yl)pyridin-2-yl)cyclopropanecarbonitrile] gave an IC50 of under 0.1 µM.
`CNC(=O)c1cccc(-n2ncc3ccc(-c4cncc(N)c4)cc32)n1` [Example 32, 6-(6-(5-aminopyridin-3-yl)-1H-indazol-1-yl)-N-methylpicolinamide] gave an IC50 of 0.1 to 1 µM.
Compound `COC(=O)c1cc(-c2cncc(N)c2)cc2c1cnn2-c1cccc(C#N)n1` [Example 49, methyl 6-(5-aminopyridin-3-yl)-1-(6-cyanopyridin-2-yl)-1H-indazole-4-carboxylate] has an IC50 of under 0.1 µM.
`NCc1cccc(-c2ccc3cnn(-c4cccc(CO)n4)c3c2)n1` [Example 291, (6-(6-(6-(aminomethyl)pyridin-2-yl)-1H-indazol-1-yl)pyridin-2-yl)methanol] was tested, and the IC50 was under 0.1 µM.
Work on `CCC[C@H](N)c1cccc(-c2ccc3cnn(-c4cccc(C)n4)c3c2)n1` [Example 265, (S)-1-(6-(1-(6-methylpyridin-2-yl)-1H-indazol-6-yl)pyridin-2-yl)butan-1-amine] yielded an IC50 of under 0.1 µM.
In the case of `COCCOc1cc(-c2cccc(C3(N)CCOC3)n2)cc2c1cnn2-c1cccc(CO)n1` (centres unmarked) [Example 466, (6-(6-(6-(3-aminotetrahydrofuran-3-yl)pyridin-2-yl)-4-(2-methoxyethoxy)-1H-indazol-1-yl)pyridin-2-yl)methanol], the IC50 is reported as under 0.1 µM.
Compound `CCC[C@H](N)c1cccc(-c2cc(-c3ncccn3)c3cnn(-c4cccc(CO)n4)c3c2)n1` [Example 384, (S)-(6-(6-(6-(1-aminobutyl)pyridin-2-yl)-4-(pyrimidin-2-yl)-1H-indazol-1-yl)pyridin-2-yl)methanol] has an IC50 of under 0.1 µM.
With `CC(O)CNC(=O)c1cccc(-n2ncc3ccc(-c4cncc(N)c4)cc32)n1` (centres unmarked) [Example 67, 6-(6-(5-aminopyridin-3-yl)-1H-indazol-1-yl)-N-(2-hydroxypropyl)picolinamide] the IC50 was 1 to 10 µM.
For `Cc1cccc(-n2ncc3ccc(-c4cccc(C5(N)CC5)n4)cc32)n1` [Example 262, 1-(6-(1-(6-methylpyridin-2-yl)-1H-indazol-6-yl)pyridin-2-yl)cyclopropanamine], the IC50 was 0.1 to 1 µM.
`C/C(=N\O)c1cccc(-c2cc(N(C)C)c3cnn(-c4cccc(C)n4)c3c2)n1` [Example 234, (E)-1-(6-(4-(dimethylamino)-1-(6-methylpyridin-2-yl)-1H-indazol-6-yl)pyridin-2-yl)ethanone oxime] showed an IC50 of 0.1 to 1 µM.
In the case of `Cc1cccc(-n2ncc3c(C#N)cc(-c4cccc(C(C)N)n4)cc32)n1` (centres unmarked) [Example 214, 6-(6-(1-aminoethyl)pyridin-2-yl)-1-(6-methylpyridin-2-yl)-1H-indazole-4-carbonitrile], the IC50 is reported as under 0.1 µM.
With `Cc1cccc(-n2ncc3ccc(-c4nccc(N)n4)cc32)n1` [Example 2, 2-(1-(6-methylpyridin-2-yl)-1H-indazol-6-yl)pyrimidin-4-amine] the IC50 was 1 to 10 µM.
In the case of `CCC[C@H](N)c1cccc(-c2cc([C@@H]3CCCN3)c3cnn(-c4cccc(CO)n4)c3c2)n1` [Example 573, (6-(6-(6-((S)-1-aminobutyl)pyridin-2-yl)-4-((S)-pyrrolidin-2-yl)-1H-indazol-1-yl)pyridin-2-yl)methanol], the IC50 is reported as under 0.1 µM.
`CC(N)c1cccc(-c2cc(F)c3cnn(-c4cccc(CO)n4)c3c2)n1` (centres unmarked) [Example 321, (6-(6-(6-(1-aminoethyl)pyridin-2-yl)-4-fluoro-1H-indazol-1-yl)pyridin-2-yl)methanol] was tested, and the IC50 was under 0.1 µM.
`NCCNC(=O)c1cc(N)cc(-c2ccc3cnn(-c4cccc(C(F)(F)F)n4)c3c2)c1` [Example 88, 3-amino-N-(2-aminoethyl)-5-(1-(6-(trifluoromethyl)pyridin-2-yl)-1H-indazol-6-yl)benzamide] showed an IC50 of under 0.1 µM.
For `Cc1cccc(-n2ncc3ccc(-c4cncc(N5CCCC5)c4)cc32)n1` [Example 203, 1-(6-methylpyridin-2-yl)-6-(5-(pyrrolidin-1-yl)pyridin-3-yl)-1H-indazole], the IC50 was 1 to 10 µM.
In the case of `NCc1nccc(-c2ccc3cnn(-c4cccc(C(F)(F)F)n4)c3c2)n1` [Example 95, (4-(1-(6-(trifluoromethyl)pyridin-2-yl)-1H-indazol-6-yl)pyrimidin-2-yl)methanamine], the IC50 is reported as 1 to 10 µM.
